Measured values as given in ChEMBL document CHEMBL1201862, “PubChem BioAssay data set” (2004).
Where a name gives a salt, the structure may show the parent alone.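 The compound was tested at five concentrations on cells cultured in 96-well plates, with a 48-hour exposure period. Here, GI50 denotes the concentration required for 50% inhibition of growth.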 Calls of active or inactive are those of the source. Cut-off read from the data, not from the text of the source: active = GI50 up to about 1.1 µM and inactive = higher.

Experiments:
Assay in all cases: DTP human tumour cell line panel, 48 h
A549 = system: A549
COLO 205 = system: COLO 205
EKVX = system: EKVX
HCC 2998 = system: HCC 2998
LOX IMVI = system: LOX IMVI
MDA-N = system: MDA-N
MOLT-4 = system: MOLT-4
NCI-H460 = system: NCI-H460
RPMI-8226 = system: RPMI-8226
SF-268 = system: SF-268
SF-295 = system: SF-295
SF-539 = system: SF-539
SK-OV-3 = system: SK-OV-3
SN12C = system: SN12C
SNB-75 = system: SNB-75
SW-620 = system: SW-620
TK-10 = system: TK-10
UACC-62 = system: UACC-62
Malme-3M = system: Malme-3M

Measured: GI50

CCSc1nc(C)nc2c1sc1nc3ccccc3n12
inactive: A549 > 100 µM | COLO 205 > 100 µM | EKVX > 100 µM | HCC 2998 > 100 µM | LOX IMVI > 100 µM | MDA-N > 100 µM | MOLT-4 > 100 µM | NCI-H460 > 100 µM | RPMI-8226 > 100 µM | SF-268 > 100 µM | SF-295 > 100 µM | SF-539 > 100 µM | SK-OV-3 > 100 µM | SN12C > 100 µM | SNB-75 > 94 µM | SW-620 > 100 µM | TK-10 > 100 µM | UACC-62 > 100 µM

CCN(CC)CCC(=O)NC1c2ccc(Cl)cc2Oc2c(C)cccc21 (stereo unspecified)
inactive: A549 16.5 µM | COLO 205 18.6 µM | EKVX 13.4 µM | HCC 2998 24.2 µM | LOX IMVI 14.5 µM | MDA-N 16.6 µM | MOLT-4 18.6 µM | NCI-H460 16.6 µM | RPMI-8226 24.9 µM | SF-268 8.53 µM | SF-295 18.6 µM | SF-539 13.2 µM | SK-OV-3 17.6 µM | SN12C 17.3 µM | SNB-75 10.2 µM | SW-620 16.7 µM | TK-10 14.6 µM | UACC-62 16.9 µM

O=C1ON=C2C3CC4CC12CC1(C3)C(=O)ON=C41
inactive: A549 > 100 µM | COLO 205 > 100 µM | EKVX > 100 µM | HCC 2998 > 100 µM | LOX IMVI > 100 µM | MDA-N > 100 µM | MOLT-4 > 100 µM | Malme-3M > 100 µM | NCI-H460 > 100 µM | RPMI-8226 > 100 µM | SF-295 > 100 µM | SF-539 > 100 µM | SN12C > 100 µM | SNB-75 > 100 µM | SW-620 > 100 µM | UACC-62 > 100 µM

N=c1c2c3n(c4c(=O)n(-c5ccccc5)c(=S)n(c(=O)n1-c1ccccc1)c24)CCCCC3
inactive: A549 > 100 µM | COLO 205 > 100 µM | EKVX > 91.4 µM | HCC 2998 > 100 µM | LOX IMVI > 100 µM | MDA-N > 100 µM | Malme-3M > 100 µM | NCI-H460 > 100 µM | SF-268 > 100 µM | SF-295 > 100 µM | SF-539 > 89.7 µM | SK-OV-3 > 81.1 µM | SN12C > 100 µM | SNB-75 > 63.1 µM | SW-620 > 100 µM | TK-10 > 100 µM | UACC-62 > 100 µM

O=C(Nc1nc(C23CC4CC(CC(C4)C2)C3)cs1)c1cc2cc([N+](=O)[O-])ccc2oc1=O
inactive: A549 70.5 µM | COLO 205 41 µM | EKVX 53 µM | HCC 2998 > 100 µM | LOX IMVI 47.1 µM | MDA-N > 100 µM | MOLT-4 57.8 µM | Malme-3M 46.2 µM | NCI-H460 52.6 µM | RPMI-8226 > 100 µM | SF-268 26.2 µM | SF-295 38.1 µM | SF-539 > 100 µM | SN12C > 100 µM | SNB-75 20.3 µM | SW-620 33.6 µM | TK-10 > 100 µM

N#C/C(=C\c1ccccc1)C(=O)Nc1nnc(-c2ccccc2)o1
inactive: A549 34.1 µM | COLO 205 28.3 µM | EKVX 47.3 µM | HCC 2998 63.1 µM | LOX IMVI 37.5 µM | MDA-N 35.4 µM | MOLT-4 33.1 µM | Malme-3M 31 µM | RPMI-8226 19.2 µM | SF-268 47.2 µM | SF-295 13.2 µM | SK-OV-3 31.8 µM | SN12C 36.7 µM | SNB-75 48.8 µM | SW-620 52.7 µM | TK-10 > 100 µM | UACC-62 22.3 µM

Cc1cc(Cl)ccc1NC(=O)/C(CC(=O)CC(c1ccccc1)c1c(O)c2ccccc2oc1=O)=N\O (stereo unspecified)
inactive: A549 > 100 µM | COLO 205 > 100 µM | EKVX > 100 µM | HCC 2998 > 100 µM | LOX IMVI > 100 µM | MDA-N > 100 µM | MOLT-4 > 100 µM | NCI-H460 > 100 µM | SF-268 > 100 µM | SF-295 > 100 µM | SF-539 > 100 µM | SK-OV-3 > 100 µM | SN12C > 100 µM | SNB-75 > 100 µM | SW-620 > 100 µM | TK-10 > 100 µM | UACC-62 > 100 µM

Cc1[nH]n(-c2nc(-c3ccccc3)cc(=O)[nH]2)c(=O)c1CCO
inactive: A549 > 100 µM | COLO 205 > 100 µM | EKVX > 100 µM | HCC 2998 > 100 µM | LOX IMVI > 100 µM | MDA-N > 100 µM | MOLT-4 63.5 µM | Malme-3M > 100 µM | NCI-H460 > 100 µM | RPMI-8226 > 100 µM | SF-268 > 100 µM | SF-295 > 100 µM | SF-539 > 100 µM | SK-OV-3 > 100 µM | SN12C > 100 µM | SW-620 > 100 µM | TK-10 > 100 µM | UACC-62 > 100 µM

Cc1ccc(Cc2n[nH]c(=O)[nH]2)cc1
inactive: A549 > 100 µM | COLO 205 > 100 µM | EKVX > 100 µM | HCC 2998 > 100 µM | LOX IMVI > 100 µM | MDA-N > 100 µM | MOLT-4 > 100 µM | Malme-3M > 100 µM | NCI-H460 > 100 µM | SF-295 > 100 µM | SF-539 > 100 µM | SK-OV-3 > 100 µM | SN12C > 100 µM | SNB-75 > 100 µM | SW-620 > 100 µM | TK-10 > 100 µM | UACC-62 > 100 µM

CO/C(=N\N=C\c1cccc(Cl)c1)c1ccncc1
inactive: A549 > 10 µM | COLO 205 > 10 µM | EKVX > 10 µM | HCC 2998 > 10 µM | LOX IMVI > 10 µM | MDA-N > 10 µM | MOLT-4 > 10 µM | Malme-3M > 10 µM | NCI-H460 > 10 µM | RPMI-8226 > 10 µM | SF-268 > 10 µM | SF-295 > 10 µM | SN12C > 10 µM | SW-620 > 10 µM | TK-10 > 10 µM

O=C1CC(C(O)CO)CC(=O)N1 (stereo unspecified)
inactive: A549 > 100 µM | HCC 2998 > 100 µM | LOX IMVI > 100 µM | MDA-N > 100 µM | MOLT-4 > 10 µM | Malme-3M > 100 µM | NCI-H460 > 100 µM | RPMI-8226 > 100 µM | SF-268 > 100 µM | SF-295 > 100 µM | SF-539 > 100 µM | SN12C > 100 µM | SW-620 > 100 µM | TK-10 > 100 µM

CN(C)CCOC(=O)COc1ccc(Cl)cc1 [CENTROPHENOXINE HYDROCHLORIDE]
inactive: A549 > 100 µM | COLO 205 > 100 µM | EKVX > 100 µM | HCC 2998 > 100 µM | LOX IMVI > 100 µM | MDA-N > 100 µM | MOLT-4 > 100 µM | Malme-3M > 100 µM | NCI-H460 > 100 µM | SF-268 > 100 µM | SF-295 > 100 µM | SF-539 > 100 µM | SK-OV-3 > 100 µM | SN12C > 100 µM | SNB-75 52.8 µM | SW-620 > 100 µM | UACC-62 > 100 µM
